Experimental data taken from US10017480B2, “Compounds having a selective PDE4D inhibiting activity” (UNIVERSITÂ DEGLI STUDI DI GENOVA, priority 2014, dated 2018).
Counter-ions that a name gives are not always drawn. Like-named read-outs stand apart in the source and are kept apart here.

Assays:
[1] = biological target: PDE4D3 (Homo sapiens, UniProt Q08499); experiment: PDE4D3 enzyme inhibition (IMAP); assay type: biochemical
Method: Compound's evaluation on PDE4D3, PDE4A4, PDE4B2 and PDE4C2 enzyme assays were performed by Scottish Biomedical (Glasgow, Scotland, UK) using recombinant human PDE enzymes expressed in a baculoviral system. The preliminary screening assays were performed by the IMAP technology (Molecular Devices), which is based on the high affinity binding of phosphate by immobilized metal coordination complexes on nanoparticles. The binding reagent complexes with phosphate groups on nucleotide monophosphate generated from cyclic nucleotides (cAMP) through phosphodiesterases. With fluorescence polarization detection, binding causes a change in the rate of the molecular motion of the phosphate bearing molecule and results in an increase in the fluorescence polarization value observed for the fluorescent label attached to the substrate. […] All compounds were solved in DMSO at 10^−2 M concentration and then diluted with water to the final suitable concentrations. All synthesized compounds were tested preliminary on PDE4D3 at 10^−5 M concentration, in duplicate. Results are expressed as a percent inhibition of control activity (see table 1).
IC50 values are reported at μM concentration in table 1. […] The results are reported (as percent of inhibition at 10 μM concentration) in Table 1.

Chain of PDE4D3 (Q08499 1-673 isoform Q08499-2): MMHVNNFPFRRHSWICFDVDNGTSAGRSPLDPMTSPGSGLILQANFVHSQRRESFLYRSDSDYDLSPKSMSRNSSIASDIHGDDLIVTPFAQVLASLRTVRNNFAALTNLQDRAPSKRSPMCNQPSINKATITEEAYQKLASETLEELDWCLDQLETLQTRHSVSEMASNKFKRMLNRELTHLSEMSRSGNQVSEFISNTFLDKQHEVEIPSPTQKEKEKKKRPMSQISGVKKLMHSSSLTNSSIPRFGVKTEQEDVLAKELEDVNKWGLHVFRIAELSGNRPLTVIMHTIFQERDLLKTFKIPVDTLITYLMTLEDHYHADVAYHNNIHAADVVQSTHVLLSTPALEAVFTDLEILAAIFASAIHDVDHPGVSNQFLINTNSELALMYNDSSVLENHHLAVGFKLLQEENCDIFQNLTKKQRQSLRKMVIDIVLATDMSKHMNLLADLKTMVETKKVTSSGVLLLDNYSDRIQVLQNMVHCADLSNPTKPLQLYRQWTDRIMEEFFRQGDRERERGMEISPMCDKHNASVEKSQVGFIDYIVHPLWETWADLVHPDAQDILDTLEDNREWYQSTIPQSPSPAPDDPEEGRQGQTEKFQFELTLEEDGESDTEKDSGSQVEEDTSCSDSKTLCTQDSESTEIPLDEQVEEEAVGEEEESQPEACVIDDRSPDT

Row | SMILES | PDE4D3 % inib at 10 μM ([1]; 10 μM, in duplicate) [%] | further results
1 | COc1ccc(-c2cc(C(=O)CN3CCOCC3)on2)cc1OC1CCCC1 (as salt: hydrochloride) [XVa, 1-{3-[3-(Cyclopentyloxy)-4-methoxyphenyl]isoxazol-5-yl}-2-morpholin-4-ylethanone hydrochloride] | – | melting point: 175 °C (dec.)
2 | COc1ccc(-c2cc(C(=O)CN3CC(C)OC(C)C3)on2)cc1OC1CCCC1 (stereo not drawn) (as salt: hydrochloride) [XVb, 1-{3-[3-(Cyclopentyloxy)-4-methoxyphenyl]isoxazol-5-yl}-2-(2,6-dimethylmorpholin-4-yl)ethanone hydrochloride] | – | melting point: 200 °C (dec.)
3 | COc1ccc(-c2ccn(CC(O)CN3CCOCC3)n2)cc1OC1CCCC1 (stereo not drawn) (as salt: salt) [XVIIIa, 1-{3-[3-(Cyclopentyloxy)-4-methoxyphenyl]-1H-pyrazol-1-yl}-3-morpholin-4-ylpropan-2-ol dihydrocloride] | – | melting point: 162 to 163 °C
4 | COc1ccc(-c2ccn(CC(O)CN3CC(C)OC(C)C3)n2)cc1OC1CCCC1 (stereo not drawn) (as salt: salt) [XVIIIb, 1-{3-[3-(Cyclopentyloxy)-4-methoxyphenyl]-1H-pyrazol-1-yl}-3-(2,6-dimethylmorpholin-4-yl)propan-2-ol dihydrocloride] | – | melting point: 188 to 189 °C
5 | COc1ccc(C2=NOC(C(=O)N(CCO)CCO)C2)cc1OC1CCCC1 (stereo not drawn) [XIIIf, 3-[3-(Cyclopentyloxy)-4-methoxyphenyl]-N,N-bis(2-hydroxyethyl)-4,5-dihydroisoxazole-5-carboxamide] | 33 | –
6 | COc1ccc(-c2ccn(CC(O)CN3CCC(O)CC3)n2)cc1OC1CCCC1 (stereo not drawn) [XVIIIc, 1-(3-{3-[3-(cyclopentyloxy)-4-methoxyphenyl]4H-pyrazol-1-yl}-2-hydroxypropyl)piperidin-4-ol] | 2 | –
7 | COc1ccc(-c2cc(C(=O)CN3CCOCC3)on2)cc1OC1CCCC1 [XVa, 1-{3-[3-(Cyclopentyloxy)-4-methoxyphenyl]isoxazol-5-yl}-2-morpholin-4-ylethanone hydrochloride] | 39 | –
8 | COc1ccc(-c2cc(C(=O)CN3CC(C)OC(C)C3)on2)cc1OC1CCCC1 (stereo not drawn) [XVb, 1-{3-[3-(Cyclopentyloxy)-4-methoxyphenyl]isoxazol-5-yl}-2-(2,6-dimethylmorpholin-4-yl)ethanone hydrochloride] | 13 | –
9 | OC1CCN(CC(O)Cn2ccc(-c3ccc(OC(F)F)c(OC4CCCC4)c3)n2)CC1 (stereo not drawn) [XXIIc, 1-(3-{3-[3-(cyclopentyloxy)-4-difluoromethoxy-phenyl]-pyrazol-1-yl}-2-hydroxy-propyl)-piperidin-4-ol] | – | PDE4D3 % inib at 10 μM [1]: 73%
10 | COc1ccc(-c2c[nH]cc2C(=O)N2CCOCC2)cc1OC1CCCC1 [XXVIa, {4-[3-(Cyclopentyloxy)-4-methoxy-phenyl]-1H-pyrrol-3-yl}-morpholin-4-yl-methanone] | 13 | –
11 | COc1ccc(-c2c[nH]cc2C(=O)N2CC(C)OC(C)C2)cc1OC1CCCC1 (stereo not drawn) [XXVIb, {4-[3-(Cyclopentyloxy)-4-methoxy-phenyl]-1H-pyrrol-3-yl}-(2,6-dimethyl-morpholin-4-yl)-methanone] | 6 | –
12 | COc1ccc(-c2c[nH]cc2C(=O)N2CCC(O)CC2)cc1OC1CCCC1 [XXVIc, {4-[3-(Cyclopentyloxy)-4-methoxy-phenyl]-1H-pyrrol-3-yl}-(4-hydroxy-piperidin-1-yl)-methanone] | 15 | –
13 | COc1ccc(-c2ccn(CC(O)CN3CCOCC3)c2)cc1OC1CCCC1 (stereo not drawn) [XXVa, 1-{3-[3-(Cyclopentyloxy)-4-methoxy-phenyl]-pyrrol-1-yl}-3-morpholin-4-yl-propan-2-ol] | 21 | –
14 | COc1ccc(-c2ccn(CC(O)CN3CC(C)OC(C)C3)c2)cc1OC1CCCC1 (stereo not drawn) [XXVb, 1-{3-[3-(Cyclopentyloxy)-4-methoxy-phenyl]-pyrrol-1-yl}-3-(2,6-dimethyl-morpholin-4-yl)-propan-2-ol] | 36 | –
15 | COc1ccc(-c2ccn(CC(O)CN3CCC(O)CC3)c2)cc1OC1CCCC1 (stereo not drawn) [XXVc, 1-(3-{3-[3-(cyclopentyloxy)-4-methoxy-phenyl]-pyrrol-1-yl}-2-hydroxy-propyl)-piperidin-4-ol] | 5 | –
